Like-named read-outs stand apart in the source and are kept apart here.
Key:
[1] = molecular target: E-coli thymidylate synthase (ecTS) (Escherichia coli, UniProt P0A884); experiment: Inhibition of E. coli thymidylate synthase; type: biochemical; conditions: for % in parentheses after the > value, ecTS: Table 22, at the concentration given
Protocol: All of the compounds were tested against human cells, L. casei, E. coli, and S. faecium.

[2] = molecular target: T1, Tg DHFR (Toxoplasma gondii, UniProt Q07422); experiment: biochemical; type: biochemical; conditions: for rl/tg: selectivity ratio; for Selectivity ratio rl/tg: IC50 rlDHFR/IC50 tgDHFR; for Selectivity Ratio: RL DHFR/Tg: IC50 RL DHFR divided by IC50 Tg DHFR
T1 sequence (Q07422 1-610): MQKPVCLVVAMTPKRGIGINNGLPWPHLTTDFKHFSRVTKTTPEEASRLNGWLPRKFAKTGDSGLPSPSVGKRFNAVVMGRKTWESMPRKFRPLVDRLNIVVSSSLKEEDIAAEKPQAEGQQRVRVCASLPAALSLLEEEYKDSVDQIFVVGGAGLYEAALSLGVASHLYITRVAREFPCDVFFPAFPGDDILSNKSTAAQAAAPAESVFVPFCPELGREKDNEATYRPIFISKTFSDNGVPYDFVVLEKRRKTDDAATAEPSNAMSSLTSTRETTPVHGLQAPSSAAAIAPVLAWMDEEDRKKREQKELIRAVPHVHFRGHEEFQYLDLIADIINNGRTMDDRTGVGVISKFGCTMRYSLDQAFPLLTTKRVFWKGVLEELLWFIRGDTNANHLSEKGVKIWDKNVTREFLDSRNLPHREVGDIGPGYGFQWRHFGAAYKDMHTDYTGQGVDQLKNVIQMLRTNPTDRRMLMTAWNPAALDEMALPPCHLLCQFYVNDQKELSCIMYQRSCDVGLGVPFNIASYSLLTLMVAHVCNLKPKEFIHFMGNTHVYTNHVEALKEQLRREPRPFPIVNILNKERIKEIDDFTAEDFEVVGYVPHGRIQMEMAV
Protocol: (§1) The selectivity ratio is a measure of the selectivity of a compound for Pc DHFR or Tg DHFR and is expressed as the IC50 value of the DHFR from rate liver (RL) divided by the IC50 value of either the Pc DHFR or the Tg DHFR, depending on which organism the compounds are being tested against. For example, the selectivity ratio of a compound is calculated by the following formula: [formula]

[3] = molecular target: T2, Pc DHFR (Pneumocystis carinii, UniProt P16184); experiment: biochemical
T2 sequence (P16184 1-206): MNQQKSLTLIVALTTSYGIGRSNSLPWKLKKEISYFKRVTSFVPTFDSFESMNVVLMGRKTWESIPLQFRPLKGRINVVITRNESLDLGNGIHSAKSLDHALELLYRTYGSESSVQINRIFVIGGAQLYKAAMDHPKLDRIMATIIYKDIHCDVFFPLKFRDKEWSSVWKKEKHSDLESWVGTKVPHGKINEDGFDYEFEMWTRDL

[4] = molecular target: T3, RL DHFR (Rattus norvegicus, UniProt Q920D2); experiment: Inhibition of DHFR from rat liver; type: biochemical
T3 construct: Toxoplasmosis gondii (Tg) and rat liver (RL); from tissue; host or cells: rat liver
T3 sequence (Q920D2 1-187): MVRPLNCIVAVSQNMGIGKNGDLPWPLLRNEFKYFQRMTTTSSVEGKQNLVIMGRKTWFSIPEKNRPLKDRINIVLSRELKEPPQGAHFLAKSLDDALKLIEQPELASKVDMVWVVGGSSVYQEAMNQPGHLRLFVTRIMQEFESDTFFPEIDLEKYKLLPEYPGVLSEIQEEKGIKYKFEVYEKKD
Protocol: as §1

[5] = tested on: FaDu; experiment: Growth inhibition of FaDu human squamous carcinoma cell line; type: cell-based
[6] = molecular target: T2, Pc DHFR; type: biochemical; conditions: for Selectivity ratio rl/pc: IC50 rlDHFR/IC50 pcDHFR; for Selectivity Ratio RL/Pc: Table 16; for Selectivity Ratio: RL DHFR/Pc DHFR: Table 7, IC50 RL DHFR divided by IC50 Pc DHFR
Protocol: as §1

[7] = tested on: R1 cells; experiment: Growth inhibition of R1 subline (increased DHFR); type: cell-based; conditions: Homo sapiens
[8] = tested on: R2 cells; experiment: Growth inhibition of R2 subline (MTX-transport deficient); type: cell-based; conditions: Homo sapiens
[9] = Table 22, read-out: tgDHFR IC50
[10] = Table 22, read-out: pcDHFR IC50
[11] = Table 22, read-out: rlDHFR IC50
[12] = Table 15, continuous (120 hours) exposure, read-out: Growth inhibition EC50, FaDu
[13] = Table 16, read-out: Pc DHFR IC50
[14] = Table 25, read-out: Inhibitor Concentrations (IC50) pcDHFR
[15] = Table 25, read-out: Inhibitor Concentrations (IC50) rlDHFR
[16] = Table 25, read-out: Inhibitor Concentrations (IC50) tgDHFR
[17] = Table 16, read-out: Tg DHFR IC50
[18] = Table 7, read-out: Tg DHFR IC50
[19] = Table 7, read-out: Pc DHFR IC50
[20] = Table 7, read-out: RL DHFR IC50
[21] = Table 16, read-out: RL DHFR IC50
[22] = read-out: Growth inhibition EC50

Chain of E-coli thymidylate synthase (ecTS) (P0A884 whole entry): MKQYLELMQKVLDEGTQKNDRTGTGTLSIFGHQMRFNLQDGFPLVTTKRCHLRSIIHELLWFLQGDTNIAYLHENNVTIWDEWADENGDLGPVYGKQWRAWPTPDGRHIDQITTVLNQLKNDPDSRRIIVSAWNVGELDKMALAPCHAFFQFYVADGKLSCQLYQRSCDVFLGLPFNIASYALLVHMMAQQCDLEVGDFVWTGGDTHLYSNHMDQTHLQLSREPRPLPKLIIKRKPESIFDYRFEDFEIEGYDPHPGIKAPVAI

## COc1ccc(OC)c(NCc2c[nH]c3nc(N)nc(O)c23)c1 [Compound 408]
[1]
  IC50: > 160 µM
  % in parentheses after the > value, ecTS: 21%
[2]; [9]
  IC50: 2.2 µM
[2]; Table 22
  rl/tg: >21
[3]; [10]
  IC50: > 47 µM
[4]; [11]
  IC50: > 47 µM

## CN(Cc1ccc(S(=O)(=O)N2CCOCC2)cc1)c1ccc2c3c(cccc13)C(=N)N2 [AG331]
[5]; [12]
  EC50: 1000 ± 100 nM

## Nc1nc(N)c2c(CNc3cc(Cl)ccc3Cl)coc2n1 [Compound 169, 2,4-Diamino-5-[(2′,5′-dichloroanilino)methyl]furo[2,3-d]pyrimidine]
[6]
  Selectivity ratio rl/pc: 1.4
  Selectivity Ratio RL/Pc: 1.4
[3]; [13]
  IC50: 50.9 µM
[3]; [14]
  IC50: 50.9 µM
[4]; [15]
  IC50: 71.9 µM

## CCOc1cc(Cc2cnc(N)nc2N)cc(OCC)c1-n1cccc1 [epiroprim, reference compound]
[6]
  Selectivity ratio rl/pc: 12.8
[2]
  Selectivity ratio rl/tg: 70.6
[2]; [16]
  IC50: 0.48 µM

## Nc1nc(N)c2c(COc3ccc4ccccc4c3)coc2n1 [Compound 164, 2,4-Diamino-5-[(2-naphthoxy)methyl]furo[2,3-d]pyrimidine]
[6]
  Selectivity ratio rl/pc: 4.31
  Selectivity Ratio RL/Pc: 4.31
[2]; [17]
  IC50: > 42 µM
[2]; [16]
  IC50: > 42 µM
[3]; [13]
  IC50: 14 µM
[3]; [14]
  IC50: 14 µM
[4]; [15]
  IC50: 60.3 µM

## COc1cc(NCc2c[nH]c3nc(N)nc(N)c23)cc(OC)c1OC [Compound 1, 2,4-diamino-5-[(3′,4′,5′-trimethoxyanilino)methyl]pyrrolo[2,3-d]pyrimidine]
[6]
  Selectivity Ratio: RL DHFR/Pc DHFR: <2.4
[2]; Table 7
  Selectivity Ratio: RL DHFR/Tg: 7.0
[2]; [18]
  IC50: 8.1 µM
[3]; [19]
  IC50: > 23 µM
[4]; [20]
  IC50: 56.3 µM

## COc1cc(NCc2c[nH]c3nc(N)[nH]c(=O)c23)cc(OC)c1 [Compound 409]
[1]
  IC50: > 160 µM
  % in parentheses after the > value, ecTS: 0%
[2]; [9]
  IC50: 2.6 µM
[2]; Table 22
  rl/tg: >8
[3]; [10]
  IC50: > 20 µM
[4]; [11]
  IC50: > 20 µM

## COc1ccc(NCc2c[nH]c3nc(N)[nH]c(=O)c23)c(OC)c1 [Compound 410]
[1]
  IC50: > 160 µM
  % in parentheses after the > value, ecTS: 8%
[2]; [9]
  IC50: 7.1 µM
[2]; Table 22
  rl/tg: >1.4
[3]; [10]
  IC50: > 16 µM
[4]; [11]
  IC50: > 16 µM

## Nc1nc(N)c2c(CNc3ccc4ccccc4c3)coc2n1 [Compound 163, 2-4-Diamino-5-[(2-naphthylamino)methyl]furo[2,3-d]pyrimidine]
[6]
  Selectivity ratio rl/pc: 0.89
  Selectivity Ratio RL/Pc: 0.89
[2]
  Selectivity ratio rl/tg: 0.96
[2]; Table 16
  Selectivity Ratio RL/Tg: 0.96
[2]; [17]
  IC50: 38 µM
[2]; [16]
  IC50: 38 µM
[3]; [13]
  IC50: 41 µM
[3]; [14]
  IC50: 41 µM
[4]; [21]
  IC50: 36.5 µM
[4]; [15]
  IC50: 36.5 µM

## COc1cccc(NCc2coc3nc(N)nc(N)c23)c1 [Compound 175, 2,4-Diamino-5-[(3′-methoxyanilino)methyl]furo[2,3-d]-pyrimidine]
[2]; [17]
  IC50: > 31.3 µM
[2]; [16]
  IC50: > 31.3 µM
[3]; [13]
  IC50: > 31.3 µM
[3]; [14]
  IC50: > 31.3 µM
[4]; [21]
  IC50: > 31.3 µM
[4]; [15]
  IC50: > 31.3 µM

## COc1ccc(NCc2c[nH]c3nc(N)nc(N)c23)cc1OC [Compound 2, 2,4-diamino-5-[(3′,4′-dimethoxyanilino)methyl]pyrrolo[2,3-d]pyrimidine]
[2]; [18]
  IC50: 4.3 µM
[3]; [19]
  IC50: 119 µM
[4]; [20]
  IC50: 116 µM

## COc1ccc(NCc2c[nH]c3nc(N)nc(N)c23)cc1 [Compound 3, 2,4-diamino-5-[(4′-methoxyanilino)methyl]pyrrolo[2,3-d]pyrimidine]
[6]
  Selectivity Ratio: RL DHFR/Pc DHFR: 0.23
[2]; Table 7
  Selectivity Ratio: RL DHFR/Tg: 10.5
[2]; [18]
  IC50: 6 µM
[3]; [19]
  IC50: 279 µM
[4]; [20]
  IC50: 63 µM

## CN(Cc1cnc2nc(N)nc(N)c2n1)c1ccc(C(=O)N[C@@H](CCC(=O)O)C(=O)O)cc1 [MTX, methotrexate, reference compound]
[7]; [22]
  EC50: 675 ± 35 nM
[7]; read-out: Growth inhibition EC50, R1
  EC50: 595 ± 5 nM
[7]; read-out: Growth inhibition EC50, R1 (↑ DHFR)
  EC50: 6445 ± 55 nM
[5]; Homo sapiens, FaDu, 120 h, read-out: Growth inhibition EC50, FaDu
  EC50: 31 ± 2 nM
[5]; Homo sapiens, FaDu, read-out: Growth inhibition EC50
  EC50: 11.3 ± 1.8 nM
[5]; Homo sapiens, FaDu, read-out: Growth inhibition EC50, FaDu
  EC50: 17 ± 2 nM
[8]; [22]
  EC50: 1600 ± 100 nM
[8]; read-out: Growth inhibition EC50, R2
  EC50: 3100 ± 100 nM
[8]; read-out: Growth inhibition EC50, R2 (↓ transport)
  EC50: 2350 ± 550 nM

## C#CCN(Cc1ccc2nc(N)[nH]c(=O)c2c1)c1ccc(C(=O)N[C@@H](CCC(=O)O)C(=O)O)cc1 [PDDF]
[5]; [12]
  EC50: 1700 ± 200 nM

## Nc1nc(N)c2c(CNc3ccc(Cl)c(Cl)c3)c[nH]c2n1 [Compound 6, 2,4-diamino-5-[(3′,4′dichloroanilino)methyl]pyrrolo[2,3-d]pyrimidine]
[2]; [18]
  IC50: 1.4 µM
[3]; [19]
  IC50: 35.3 µM
[4]; [20]
  IC50: 14.4 µM

## COc1cc(NCc2c[nH]c3nc(N)nc(O)c23)cc(OC)c1OC [Compound 411]
[1]
  IC50: > 290 µM
  % in parentheses after the > value, ecTS: 8%
[2]; [9]
  IC50: 6.9 µM
[2]; Table 22
  rl/tg: >3
[3]; [10]
  IC50: > 22 µM
[4]; [11]
  IC50: > 22 µM

## Nc1nc(N)c2c(CNc3ccccc3)cnc-2[nH]1 [Compound 8, 2,4-diamino-5-(anilinomethyl)pyrrolo[2,3-d]pyrimidine]
[2]; Table 7
  Selectivity Ratio: RL DHFR/Tg: >65
[2]; [18]
  IC50: 3.9 µM
[3]; Table 7, IC50 RL DHFR divided by IC50 Pc DHFR
  Selectivity Ratio: RL DHFR/Pc DHFR: >1
[3]; [19]
  IC50: 252 µM
[4]; [20]
  IC50: > 252 µM

## Nc1nc(O)c2c(CNc3cccc(Cl)c3)c[nH]c2n1 [Compound 415]
[1]
  IC50: > 180 µM
  % in parentheses after the > value, ecTS: 26%
[2]; [9]
  IC50: 3.5 µM
[2]; Table 22
  rl/tg: >7
[3]; [10]
  IC50: > 26 µM
[4]; [11]
  IC50: > 26 µM
